Results: article PMC10449631 (Nature Chemical Biology, 2023)
Where “and” joins values, the source holds several entries; their conditions need not be identical. Identical values can stand only once. No end group written: not given here.

How the values were obtained:
[1] = target: T1, PaAP variant R194A (Pseudomonas aeruginosa, UniProt Q02PA2, R194A); assay: biochemical
T1 construct: PaAP (WT, residues 27–536); His6 (TEV cleavable) (N, cleaved yes); made in house; host or cells: E. coli SHuffle T7
T1 sequence (Q02PA2 37-516, looked up, stated change not applied): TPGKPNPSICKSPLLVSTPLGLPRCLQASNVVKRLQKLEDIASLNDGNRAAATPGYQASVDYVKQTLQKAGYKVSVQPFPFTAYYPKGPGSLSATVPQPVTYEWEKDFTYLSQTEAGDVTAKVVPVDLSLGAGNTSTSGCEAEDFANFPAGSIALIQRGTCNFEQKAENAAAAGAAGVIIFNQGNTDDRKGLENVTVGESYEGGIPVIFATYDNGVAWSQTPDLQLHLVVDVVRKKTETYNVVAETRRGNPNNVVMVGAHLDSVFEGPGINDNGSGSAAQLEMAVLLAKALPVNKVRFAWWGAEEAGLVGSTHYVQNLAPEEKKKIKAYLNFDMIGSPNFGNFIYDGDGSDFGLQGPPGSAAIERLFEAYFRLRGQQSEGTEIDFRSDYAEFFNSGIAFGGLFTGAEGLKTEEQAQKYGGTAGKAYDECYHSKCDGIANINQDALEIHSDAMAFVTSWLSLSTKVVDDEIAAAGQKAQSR
Experimental: (§1) To test this, we produced the PaAP variant R194A to eliminate a likely salt bridge between the peptide COOH and the guanidinium of the protein arginine side chain.
(§2) Inhibition assays were carried out with the following peptides: linear-[…] (PaAP C-terminal residues), cyclic-[…], N-acetylated and C-amidated […]. IC50 values were determined by varying peptide concentration at a fixed substrate concentration (fixed at KM, (S) = 2 mM, PaAP concentration was 100 nM). KI was determined by assaying multiple fixed inhibitor concentrations (1,000 nM, 500 nM, 250 nM, 100 nM, 50 nM, 25 nM and 10 nM) at varying substrate concentrations under standard reaction conditions with Leu-pNA as a substrate (outlined above). KI values were determined by fitting the data to equation (1) (Morrison’s equation):1 v=1−Et+I+KI−Et+I+KI^2−4EtIKI/2Et where v is the velocity, Et is the total enzyme concentration, I is the concentration of inhibitor and KI is the equilibrium dissociation constant for the inhibitor.

[2] = system: PaAP variant R194A; assay: biochemical; parameters: species or system Pseudomonas aeruginosa; details: compared to full-length PaAP
Experimental: as §1, §2

[3] = target: T2, PaAP (Pseudomonas aeruginosa, UniProt Q02PA2, A513L/Q514V/S515P); assay: Peptide digestion assay (overnight and time course, LC-MS/MALDI); format: biochemical; details: for substrate of / degraded by PaAP (words): incubated with PaAP overnight, LC–MS or MALDI; for P0 (parent peptide, LC–MS signal): 500 μM peptide, 1 μM PaAP_T
T2 construct: PaAP (WT, residues 27–536); His6 (TEV cleavable) (N, cleaved yes); made in house; host or cells: E. coli SHuffle T7
T2 sequence (Q02PA2 37-516 A513L/Q514V/S515P): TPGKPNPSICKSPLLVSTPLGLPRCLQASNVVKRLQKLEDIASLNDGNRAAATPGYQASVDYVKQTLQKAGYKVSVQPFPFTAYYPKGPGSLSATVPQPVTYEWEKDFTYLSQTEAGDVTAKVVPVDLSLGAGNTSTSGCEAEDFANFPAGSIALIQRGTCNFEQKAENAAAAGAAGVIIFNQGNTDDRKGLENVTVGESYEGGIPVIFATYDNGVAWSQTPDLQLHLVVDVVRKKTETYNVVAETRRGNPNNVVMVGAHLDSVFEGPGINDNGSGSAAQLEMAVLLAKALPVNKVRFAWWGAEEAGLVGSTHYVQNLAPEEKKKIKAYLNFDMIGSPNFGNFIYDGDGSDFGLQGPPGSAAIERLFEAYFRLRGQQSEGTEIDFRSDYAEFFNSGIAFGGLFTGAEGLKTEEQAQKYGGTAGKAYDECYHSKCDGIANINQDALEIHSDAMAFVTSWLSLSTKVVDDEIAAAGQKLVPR
Experimental: A variety of peptides of varying lengths and compositions were incubated with PaAP at room temperature. Assays were performed by incubating (overnight at room temperature) 500 μM of substrate (peptides) with 1 μM enzyme (PaAP) in reaction buffer (50 mM Tris, pH 8.5, 100 mM NaCl). The reactions were quenched by heating to 100 °C for 10 min followed by centrifugation at 17,000g in a benchtop centrifuge to remove precipitate. Supernatant was collected and samples were analyzed by LC–MS. Initial trial assays were carried out in the presence and absence (control) of enzyme to determine if the substrate was degraded (single or triplicate experiments). Time-course assays were performed on selected peptide substrates in triplicate. A 300 μl reaction (including 500 μM of substrate) was initiated by the addition of 1 μM enzyme. The reaction was incubated at room temperature. The reaction was quenched at set timepoints by the removal of 30 μl aliquots, which were immediately heated to 100 °C for 10 min. The samples were analyzed by LC–MS using a Xevo Q-ToF (Waters) as described below, searching for masses of all peptide breakdown products.
Peptide degradation time courses were fitted to exponential equations as follows:
P0 peptide consumption was fitted to a single exponential equation (equation (2)) with the format2 yt=y0−Plateaue^−kt+Plateau
Time courses for the formation and decay of peptide intermediates were fitted to double exponential equations (equation (3)) and single exponential equations, followed by a linear phase (4)3 yt=y0−Plateau1e^−k1t+y0−Plateau2e^−k2t+Plateau 4 yt=y0−Plateaue^−kt+vt+Plateau where y(t) is the product formed at time t, y0 − Plateau is the amplitude of the exponential phase, k is the observed rate constant for the exponential phase, y0 is the value of y at time 0, Plateau is the value of y after exponential phase, C is the offset and v is the slope of the linear phase.
Peptide samples incubated in the presence and absence of PaAP were initially analyzed by MALDI. The peptide sample (0.5 µl at 10 µM) was spotted along with matrix (0.5 µl 10 mg ml^−1 α-cyano-4-hydroxycinnamic acid in ACN/0.1% TFA (50/50, vol/vol)) on a stainless steel MALDI plate and left to dry. The sample plate was loaded into a Sciex 4800 MALDI mass spectrometer. The laser voltage was adjusted to give a good signal to noise strength, and 50 shots were acquired in a random pattern across the spot and spectra combined. The spectra were externally calibrated with Sciex Pepcal mix (range: 500–4,000 m/z).

## ERWGHDFIK [linear-ERWGHDFIK]
[1]
  IC50: 306 µM
[2]
  fold increase of IC50 with R194A variant: 100 fold
[3]
  substrate of / degraded by PaAP (words): acts as a substrate
[3]; listed as ERWGHDFIK
  substrate of / degraded by PaAP (words): capable of processing
[3]; time 0 minutes
  P0 (parent peptide, LC–MS signal): 472729 and 388218 and 391107
[3]; time 5 minutes
  P0 (parent peptide, LC–MS signal): 463970 and 401514 and 388992
[3]; time 10 minutes
  P0 (parent peptide, LC–MS signal): 456641 and 389333 and 386619
[3]; time 30 minutes
  P0 (parent peptide, LC–MS signal): 422990 and 361623 and 355988
[3]; time 60 minutes
  P0 (parent peptide, LC–MS signal): 374560 and 318426 and 323916
[3]; time 90 minutes
  P0 (parent peptide, LC–MS signal): 323540 and 290204 and 288024
[3]; time 120 minutes
  P0 (parent peptide, LC–MS signal): 238229 and 257847
[3]; time 1220 minutes
  P0 (parent peptide, LC–MS signal): 623.109 and 431.795 and 326.884
